compound: Nc1ncnc2c1ncn2[C@@H]1O[C@H](COP(=O)(O)OP(=O)(O)OP(=O)(O)O)[C@@H](O)[C@H]1O [adenosine triphosphate]; assay: pEC50 of ATP-induced change in protein thermal stability (2D-TPP)
In short: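 Each of three independent experiments used Jurkat crude lysate given five concentrations including vehicle (10 min, room temperature), followed by 3 min at one of 12 temperatures from 42 to 63.9 °C and NP40 with benzonase (60 min, 4 °C). TMT LC-MS/MS quantified soluble protein after ultracentrifugation, expressed as fold changes against vehicle at each temperature with median normalisation. For pEC50, dose-response curves were fitted per replicate over adjacent temperature pairs, and hits were called through permutation-based false discovery rate control.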
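Note: lysate dosed with Na-ATP at 0 0.005 0.05 0.5 and 2 mM.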

Chain of UniProt Q99575 (Q99575 whole entry): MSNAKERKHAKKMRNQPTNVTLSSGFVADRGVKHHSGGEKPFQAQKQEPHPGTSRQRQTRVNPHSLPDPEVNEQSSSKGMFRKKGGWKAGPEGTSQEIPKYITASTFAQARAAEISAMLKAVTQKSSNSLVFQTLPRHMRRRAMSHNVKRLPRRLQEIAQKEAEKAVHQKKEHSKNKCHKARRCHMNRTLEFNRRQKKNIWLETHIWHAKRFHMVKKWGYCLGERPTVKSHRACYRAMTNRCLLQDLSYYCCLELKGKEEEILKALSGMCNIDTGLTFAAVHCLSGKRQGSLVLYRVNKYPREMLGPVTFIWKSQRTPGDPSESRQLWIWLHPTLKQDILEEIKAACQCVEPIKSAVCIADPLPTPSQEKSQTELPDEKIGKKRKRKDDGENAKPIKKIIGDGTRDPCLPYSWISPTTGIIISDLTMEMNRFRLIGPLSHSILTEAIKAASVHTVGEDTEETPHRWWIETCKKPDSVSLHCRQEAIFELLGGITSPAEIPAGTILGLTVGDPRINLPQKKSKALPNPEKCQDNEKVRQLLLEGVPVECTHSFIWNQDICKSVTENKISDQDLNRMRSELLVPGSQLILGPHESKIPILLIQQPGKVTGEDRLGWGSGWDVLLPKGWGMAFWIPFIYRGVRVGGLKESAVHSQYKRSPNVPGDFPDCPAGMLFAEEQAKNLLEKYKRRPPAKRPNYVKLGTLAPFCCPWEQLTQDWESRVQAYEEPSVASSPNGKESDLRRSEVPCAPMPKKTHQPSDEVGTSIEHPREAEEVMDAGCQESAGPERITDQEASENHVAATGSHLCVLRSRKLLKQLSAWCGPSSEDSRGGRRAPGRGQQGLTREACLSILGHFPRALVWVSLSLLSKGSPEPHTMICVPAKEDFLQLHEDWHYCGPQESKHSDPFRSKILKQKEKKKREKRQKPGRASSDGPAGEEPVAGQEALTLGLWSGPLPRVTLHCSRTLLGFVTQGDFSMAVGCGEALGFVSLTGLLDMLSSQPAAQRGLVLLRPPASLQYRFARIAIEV
Chain of UniProt Q99447 (Q99447 whole entry): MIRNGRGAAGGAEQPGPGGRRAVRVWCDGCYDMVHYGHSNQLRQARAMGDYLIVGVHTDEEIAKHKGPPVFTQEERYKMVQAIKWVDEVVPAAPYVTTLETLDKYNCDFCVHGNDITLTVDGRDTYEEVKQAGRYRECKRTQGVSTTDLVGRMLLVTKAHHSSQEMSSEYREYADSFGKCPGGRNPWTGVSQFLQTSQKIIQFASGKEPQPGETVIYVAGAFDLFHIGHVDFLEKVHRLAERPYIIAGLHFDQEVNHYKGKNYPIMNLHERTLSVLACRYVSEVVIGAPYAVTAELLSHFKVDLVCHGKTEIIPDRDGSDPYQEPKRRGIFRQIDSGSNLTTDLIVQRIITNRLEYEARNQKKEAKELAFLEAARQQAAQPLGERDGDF
Chain of UniProt Q96I59 (Q96I59 whole entry): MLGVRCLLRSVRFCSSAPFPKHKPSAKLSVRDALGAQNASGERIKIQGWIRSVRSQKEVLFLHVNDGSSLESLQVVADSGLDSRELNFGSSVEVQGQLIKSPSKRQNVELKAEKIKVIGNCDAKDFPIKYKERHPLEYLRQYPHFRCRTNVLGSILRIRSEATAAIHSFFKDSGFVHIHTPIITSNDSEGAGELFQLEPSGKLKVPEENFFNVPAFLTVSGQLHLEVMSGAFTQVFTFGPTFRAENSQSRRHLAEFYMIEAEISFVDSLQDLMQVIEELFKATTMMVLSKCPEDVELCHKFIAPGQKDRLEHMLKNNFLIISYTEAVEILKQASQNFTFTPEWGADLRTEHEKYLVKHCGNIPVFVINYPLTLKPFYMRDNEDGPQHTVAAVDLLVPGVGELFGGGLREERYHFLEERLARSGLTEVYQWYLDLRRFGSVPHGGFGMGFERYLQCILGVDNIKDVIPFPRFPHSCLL
Chain of UniProt Q9BZF1 (Q9BZF1 whole entry): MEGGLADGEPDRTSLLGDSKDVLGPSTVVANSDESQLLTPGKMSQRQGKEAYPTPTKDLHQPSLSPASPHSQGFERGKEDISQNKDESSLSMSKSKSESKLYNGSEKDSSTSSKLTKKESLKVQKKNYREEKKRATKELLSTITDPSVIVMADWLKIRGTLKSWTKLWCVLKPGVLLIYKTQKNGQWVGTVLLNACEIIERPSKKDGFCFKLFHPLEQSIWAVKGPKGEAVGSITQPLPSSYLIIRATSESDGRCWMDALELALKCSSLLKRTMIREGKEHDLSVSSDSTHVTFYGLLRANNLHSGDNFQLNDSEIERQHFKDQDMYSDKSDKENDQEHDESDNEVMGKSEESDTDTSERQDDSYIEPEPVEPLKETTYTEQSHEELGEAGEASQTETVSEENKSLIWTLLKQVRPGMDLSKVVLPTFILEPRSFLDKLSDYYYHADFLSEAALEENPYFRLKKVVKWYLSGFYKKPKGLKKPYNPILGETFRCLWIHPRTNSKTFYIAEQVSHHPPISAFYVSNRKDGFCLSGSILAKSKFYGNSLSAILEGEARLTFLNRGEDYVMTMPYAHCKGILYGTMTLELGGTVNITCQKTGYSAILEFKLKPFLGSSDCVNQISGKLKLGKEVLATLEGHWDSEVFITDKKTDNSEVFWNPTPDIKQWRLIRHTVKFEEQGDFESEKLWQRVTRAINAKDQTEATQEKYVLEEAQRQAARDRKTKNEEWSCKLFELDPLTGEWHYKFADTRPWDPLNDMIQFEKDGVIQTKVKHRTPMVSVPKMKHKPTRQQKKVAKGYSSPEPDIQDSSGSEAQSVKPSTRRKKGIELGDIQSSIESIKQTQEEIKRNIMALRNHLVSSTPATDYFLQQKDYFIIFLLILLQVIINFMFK
Chain of UniProt Q86U42 (Q86U42 whole entry): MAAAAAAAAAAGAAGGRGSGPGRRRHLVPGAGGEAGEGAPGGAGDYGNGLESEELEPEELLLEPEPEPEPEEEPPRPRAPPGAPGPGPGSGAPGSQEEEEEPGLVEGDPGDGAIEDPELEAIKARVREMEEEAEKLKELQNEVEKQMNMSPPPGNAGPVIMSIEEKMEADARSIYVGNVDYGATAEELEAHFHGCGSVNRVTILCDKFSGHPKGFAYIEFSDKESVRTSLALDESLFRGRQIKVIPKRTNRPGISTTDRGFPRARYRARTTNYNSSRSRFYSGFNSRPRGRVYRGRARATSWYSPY
Chain of UniProt O14737 (O14737 whole entry): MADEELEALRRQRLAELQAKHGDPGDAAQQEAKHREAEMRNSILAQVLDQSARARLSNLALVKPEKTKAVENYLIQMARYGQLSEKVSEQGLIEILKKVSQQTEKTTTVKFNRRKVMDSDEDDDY
Chain of UniProt Q5JVF3 (Q5JVF3 whole entry): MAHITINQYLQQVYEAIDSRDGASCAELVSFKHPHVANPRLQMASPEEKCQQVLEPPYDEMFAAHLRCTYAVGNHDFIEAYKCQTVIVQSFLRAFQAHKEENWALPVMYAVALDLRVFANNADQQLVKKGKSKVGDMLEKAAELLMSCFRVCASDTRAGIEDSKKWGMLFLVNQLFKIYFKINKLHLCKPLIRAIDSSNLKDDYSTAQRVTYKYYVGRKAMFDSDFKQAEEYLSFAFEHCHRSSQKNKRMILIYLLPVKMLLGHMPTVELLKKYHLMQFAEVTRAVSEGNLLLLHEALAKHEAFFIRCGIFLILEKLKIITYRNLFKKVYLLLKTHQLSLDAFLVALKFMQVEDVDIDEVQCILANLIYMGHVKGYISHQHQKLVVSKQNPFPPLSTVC
Chain of UniProt O60313 (O60313 whole entry): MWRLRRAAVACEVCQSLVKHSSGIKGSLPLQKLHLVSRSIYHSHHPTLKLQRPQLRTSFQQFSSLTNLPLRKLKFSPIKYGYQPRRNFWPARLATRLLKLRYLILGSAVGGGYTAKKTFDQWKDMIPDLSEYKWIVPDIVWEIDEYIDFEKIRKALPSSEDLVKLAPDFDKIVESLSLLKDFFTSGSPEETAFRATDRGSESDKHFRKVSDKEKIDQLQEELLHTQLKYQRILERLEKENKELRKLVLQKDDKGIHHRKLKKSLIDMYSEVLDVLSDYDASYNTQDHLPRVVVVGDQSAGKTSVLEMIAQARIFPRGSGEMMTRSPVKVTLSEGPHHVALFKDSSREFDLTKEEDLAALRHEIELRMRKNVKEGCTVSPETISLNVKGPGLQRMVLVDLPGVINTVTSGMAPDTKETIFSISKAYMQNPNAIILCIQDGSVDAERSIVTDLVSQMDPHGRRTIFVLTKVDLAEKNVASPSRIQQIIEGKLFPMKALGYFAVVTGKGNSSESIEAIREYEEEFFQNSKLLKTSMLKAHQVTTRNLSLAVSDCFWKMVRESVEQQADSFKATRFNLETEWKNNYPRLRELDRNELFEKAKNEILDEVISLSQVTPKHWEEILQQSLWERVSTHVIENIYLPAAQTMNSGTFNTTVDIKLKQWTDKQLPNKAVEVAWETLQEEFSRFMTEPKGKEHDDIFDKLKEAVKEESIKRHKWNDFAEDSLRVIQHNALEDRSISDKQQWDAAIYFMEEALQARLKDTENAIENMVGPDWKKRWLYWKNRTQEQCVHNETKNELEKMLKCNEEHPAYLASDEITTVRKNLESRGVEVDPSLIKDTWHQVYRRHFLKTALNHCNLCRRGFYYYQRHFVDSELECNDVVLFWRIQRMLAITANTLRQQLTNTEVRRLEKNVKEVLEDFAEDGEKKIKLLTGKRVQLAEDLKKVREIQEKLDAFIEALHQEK
Chain of UniProt Q9Y266 (Q9Y266 whole entry): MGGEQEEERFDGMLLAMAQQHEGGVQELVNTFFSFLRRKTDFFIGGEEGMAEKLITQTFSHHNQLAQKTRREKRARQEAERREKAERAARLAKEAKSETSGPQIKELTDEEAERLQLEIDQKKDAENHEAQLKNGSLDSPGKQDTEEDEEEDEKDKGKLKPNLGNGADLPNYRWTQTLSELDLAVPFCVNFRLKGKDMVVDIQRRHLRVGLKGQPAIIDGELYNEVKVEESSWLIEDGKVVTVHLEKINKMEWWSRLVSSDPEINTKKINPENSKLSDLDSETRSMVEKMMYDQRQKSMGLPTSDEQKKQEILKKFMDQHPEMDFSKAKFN
Chain of UniProt Q15843 (Q15843 whole entry): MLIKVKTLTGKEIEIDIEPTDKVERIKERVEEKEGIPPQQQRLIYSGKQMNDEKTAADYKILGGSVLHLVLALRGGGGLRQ

pEC50 | Target
< 2.7 | NAP1L1 (effect direction: stabilized) (UniProt P55209)
< 2.7 | NAP1L4 (effect direction: stabilized) (UniProt Q99733)
4.56 | NAPA (effect direction: destabilized) (UniProt P54920)
4.1 | NARS2 (effect direction: stabilized) (UniProt Q96I59)
3.34 | NAT14 (effect direction: stabilized) (UniProt Q8WUY8)
3.56 | NCAPD2 (effect direction: stabilized) (UniProt Q15021)
3.93 | NCAPG (effect direction: stabilized) (UniProt Q9BPX3)
3.5 | NCAPH (effect direction: stabilized) (UniProt Q15003)
< 2.7 | NCL (effect direction: stabilized) (UniProt P19338)
3.02 | NEDD8 (effect direction: destabilized) (UniProt Q15843)
3.21 | NFATC2 (effect direction: stabilized) (UniProt Q13469)
3.66 | NFKB1 (effect direction: stabilized) (UniProt P19838)
3.75 | NIPSNAP1 (effect direction: stabilized) (UniProt Q9BPW8)
3.22 | NKTR (effect direction: stabilized) (UniProt P30414)
3.08 | NMNAT1 (effect direction: stabilized) (UniProt Q9HAN9)
3.06 | NMT1 (effect direction: stabilized) (UniProt P30419)
2.94 | NOP2 (effect direction: destabilized) (UniProt P46087)
2.88 | NPM1 (effect direction: stabilized) (UniProt P06748)
< 2.7 | NPM3 (effect direction: stabilized) (UniProt O75607)
2.97 | NRF1 (effect direction: stabilized) (UniProt Q16656)
< 2.7 | NSDHL (effect direction: stabilized) (UniProt Q15738)
2.82 | NT5C2 (effect direction: stabilized) (UniProt P49902)
< 2.7 | NT5DC2 (effect direction: stabilized) (UniProt Q9H857)

pEC50 | Target
3.44 | NUBP1 (effect direction: stabilized) (UniProt P53384)
< 2.7 | NUDC (effect direction: stabilized) (UniProt Q9Y266)
3.31 | NUDT2 (effect direction: stabilized) (UniProt P50583)
3.45 | NUMB (effect direction: stabilized) (UniProt P49757)
< 2.7 | NUP85 (effect direction: stabilized) (UniProt Q9BW27)
2.84 | NUP133 (effect direction: stabilized) (UniProt Q8WUM0)
< 2.7 | NUP188 (effect direction: stabilized) (UniProt Q5SRE5)
< 2.7 | NUP210 (effect direction: stabilized) (UniProt Q8TEM1)
3.3 | OGDH (effect direction: stabilized) (UniProt Q02218)
3.09 | OPA1 (effect direction: destabilized) (UniProt O60313)
3.73 | ORC6 (effect direction: stabilized) (UniProt Q9Y5N6)
3.4 | OSBPL8 (effect direction: stabilized) (UniProt Q9BZF1)
< 2.7 | OXA1L (effect direction: stabilized) (UniProt Q15070)
3.17 | PA2G4 (effect direction: destabilized) (UniProt Q9UQ80)
3.23 | PABPN1 (effect direction: destabilized) (UniProt Q86U42)
< 2.7 | PACSIN2 (effect direction: stabilized) (UniProt Q9UNF0)
3.1 | PAF1 (effect direction: stabilized) (UniProt Q8N7H5)
3.02 | PANK2 (effect direction: stabilized) (UniProt Q9BZ23)
2.95 | PAPOLA (effect direction: stabilized) (UniProt P51003)
3.65 | PAPSS1 (effect direction: stabilized) (UniProt O43252)
< 2.7 | PARN (effect direction: stabilized) (UniProt O95453)
2.83 | PATL1 (effect direction: stabilized) (UniProt Q86TB9)
3.45 | PC (effect direction: stabilized) (UniProt P11498)

pEC50 | Target
3.02 | PCID2 (effect direction: stabilized) (UniProt Q5JVF3)
< 2.7 | PCNA (effect direction: stabilized) (UniProt P12004)
< 2.7 | PCYT2 (effect direction: stabilized) (UniProt Q99447)
3.06 | PDCD2 (effect direction: stabilized) (UniProt Q16342)
3.52 | PDCD5 (effect direction: destabilized) (UniProt O14737)
< 2.7 | PDCD6 (effect direction: destabilized) (UniProt O75340)
3.17 | PDCD10 (effect direction: stabilized) (UniProt Q9BUL8)
4.16 | PDCL3 (effect direction: destabilized) (UniProt Q9H2J4)
2.84 | PDK3 (effect direction: stabilized) (UniProt Q15120)
2.86 | PEF1 (effect direction: destabilized) (UniProt Q9UBV8)
3.17 | PELO (effect direction: stabilized) (UniProt Q9BRX2)
< 2.7 | PEPD (effect direction: destabilized) (UniProt P12955)
3.49 | PES1 (effect direction: destabilized) (UniProt O00541)
4.03 | PEX6 (effect direction: stabilized) (UniProt Q13608)
3.57 | PFN1 (effect direction: stabilized) (UniProt P07737)
3.51 | PFN2 (effect direction: stabilized) (UniProt P35080)
< 2.7 | PGAM1 (effect direction: destabilized) (UniProt P18669)
< 2.7 | PGD (effect direction: stabilized) (UniProt P52209)
3.47 | PGGT1B (effect direction: stabilized) (UniProt P53609)
3.75 | PGK1 (effect direction: stabilized) (UniProt P00558)
< 2.7 | PGM1 (effect direction: destabilized) (UniProt P36871)
< 2.7 | PGP (effect direction: destabilized) (UniProt A6NDG6)
4.03 | PHACTR4 (effect direction: stabilized) (UniProt Q8IZ21)

pEC50 | Target
< 2.7 | PHGDH (effect direction: stabilized) (UniProt O43175)
2.87 | PHKA1 (effect direction: stabilized) (UniProt P46020)
2.96 | PHKG2 (effect direction: stabilized) (UniProt P15735)
3.54 | PI4K2A (effect direction: stabilized) (UniProt Q9BTU6)
2.72 | PIP4K2A (effect direction: stabilized) (UniProt P48426)
3.09 | PITRM1 (effect direction: stabilized) (UniProt Q5JRX3)
2.94 | PLCG1 (effect direction: stabilized) (UniProt P19174)
3.32 | PLEKHA1 (effect direction: stabilized) (UniProt Q9HB21)
3.17 | PLEKHF2 (effect direction: stabilized) (UniProt Q9H8W4)
3.69 | PLK1 (effect direction: stabilized) (UniProt P53350)
< 2.7 | PLS1 (effect direction: stabilized) (UniProt Q14651)
2.86 | PM20D2 (effect direction: stabilized) (UniProt Q8IYS1)
3.21 | PMS2 (effect direction: stabilized) (UniProt P54278)
3.58 | PMVK (effect direction: stabilized) (UniProt Q15126)
3.26 | POLG2 (effect direction: destabilized) (UniProt Q9UHN1)
3.72 | POLR2C (effect direction: destabilized) (UniProt P19387)
3.45 | POLR2E (effect direction: destabilized) (UniProt P19388)
< 2.7 | POP1 (effect direction: destabilized) (UniProt Q99575)
2.85 | PPA1 (effect direction: destabilized) (UniProt Q15181)
< 2.7 | PPA2 (effect direction: destabilized) (UniProt Q9H2U2)
3.15 | PPM1B (effect direction: destabilized) (UniProt O75688)

Target | pEC50
NEK9 (effect direction: stabilized) (UniProt Q8TD19) | 3.19

Source: the supplement of paper PMC6411743
